In PubChem BioAssay AID192 (DTP/NCI, 2004):
Several values for one entry are separate records, joined by “and”; a condition that tells them apart may be missing. Identical values can stand only once. Toxic doses and inconclusive results are not listed.

Tested on: BDF1 mice, B16 melanoma ip, median survival T/C
Experiment: NCI In Vivo Anticancer Drug Screen. Data for tumor model B16 Melanoma (intraperitoneal) in B6D2F1 (BDF1) mice
Details: endpoint: median survival time, higher = longer survival
Outline: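 Vehicle-treated animals serve as the reference (C); treated animals (T) are scored for survival or tumor size after tumor transplantation.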

[1] = dose: 50.0 mg/kg/injection, schedule: Q01DX009 (ip), vehicle: saline

COc1cc2cc(c1Cl)N(C)C(=O)/C=C/C1(C)OC1C(C)C1CC(O)(NC(=O)O1)C(OC)C=C/C=C(\C)C2 (centres undefined)
T/C (dose: 1.3 micrograms/kg/injection, schedule: Q01DX009 (ip), vehicle: saline + alcohol): 100 % of control
T/C (dose: 2.5 micrograms/kg/injection, schedule: Q01DX009 (ip), vehicle: saline + alcohol): 97 % of control
T/C (dose: 5.0 micrograms/kg/injection, schedule: Q01DX009 (ip), vehicle: saline + alcohol): 97 % of control
T/C (dose: 10.0 micrograms/kg/injection, schedule: Q01DX009 (ip), vehicle: saline + alcohol): 92 % of control

[N-]=[N+]=CC(=O)NCC(=O)NN
T/C (dose: 50.0 mg/kg/injection, schedule: Q01DX009 (ip), vehicle: other): 111 % of control
T/C [1]: 110 % of control
T/C (dose: 100.0 mg/kg/injection, schedule: Q01DX009 (ip), vehicle: other): 106 % of control
T/C (dose: 100.0 mg/kg/injection, schedule: Q01DX009 (ip), vehicle: saline): 113 % of control
T/C (dose: 200.0 mg/kg/injection, schedule: Q01DX009 (ip), vehicle: other): 120 % of control
T/C (dose: 200.0 mg/kg/injection, schedule: Q01DX009 (ip), vehicle: saline): 123 % of control
T/C (dose: 300.0 mg/kg/injection, schedule: Q01DX009 (ip), vehicle: other): 166 % of control
T/C (dose: 400.0 mg/kg/injection, schedule: Q01DX009 (ip), vehicle: saline): 150 % of control
T/C (dose: 500.0 mg/kg/injection, schedule: Q01DX009 (ip), vehicle: other): 86 % of control
T/C (dose: 600.0 mg/kg/injection, schedule: Q02DX005 (ip), vehicle: other): 156 % of control

[Cl][Hg][CH]1CCC2OC1CC[CH]2[Hg][Cl] (centres undefined)
T/C (dose: 6.25 mg/kg/injection, schedule: Q01DX009 (ip), vehicle: saline with Tween-80): 104 % of control

Cc1c2cc[n+](C)c(C)c2cc2c1[nH]c1ccc(O)cc12
T/C (dose: 2.5 mg/kg/injection, schedule: Q04DX003 (ip), vehicle: water): 117 % of control and 120 % of control
T/C (dose: 10.0 mg/kg/injection, schedule: Q04DX003 (ip), vehicle: water): 150 % of control

O=CC(O)C(O)C(O)C(O)C(=O)O.[NH-]C1CCCCC1[NH-].[Pt+2] (centres undefined)
T/C (dose: 0.2 mg/kg/injection, schedule: Q01DX009 (ip), vehicle: saline): 105 % of control
T/C (dose: 1.56 mg/kg/injection, schedule: Q01DX009 (ip), vehicle: saline): 162 % of control

COc1c(C(C)(C)C)cc([N+](=O)[O-])c(C)c1[N+](=O)[O-]
T/C (dose: 100.0 mg/kg/injection, schedule: Q04DX003 (ip), vehicle: Klucel (hydroxypropylcellulose) (HPC)): 100 % of control
T/C (dose: 200.0 mg/kg/injection, schedule: Q04DX003 (ip), vehicle: Klucel (hydroxypropylcellulose) (HPC)): 96 % of control
T/C (dose: 400.0 mg/kg/injection, schedule: Q04DX003 (ip), vehicle: Klucel (hydroxypropylcellulose) (HPC)): 87 % of control

O=NN(CCCl)C(=O)NCCCl
T/C (dose: 0.25 mg/kg/injection, schedule: Q01DX009 (ip), vehicle: saline with Tween-80): 102 % of control
T/C (dose: 0.5 mg/kg/injection, schedule: Q01DX009 (ip), vehicle: saline + alcohol): 105 % of control and 110 % of control
T/C (dose: 0.5 mg/kg/injection, schedule: Q01DX009 (ip), vehicle: saline with Tween-80): 109 % of control
T/C (dose: 1.0 mg/kg/injection, schedule: Q01DX009 (ip), vehicle: saline + alcohol): 108 % of control and 115 % of control
T/C (dose: 1.0 mg/kg/injection, schedule: Q01DX009 (ip), vehicle: saline with Tween-80): 110 % of control and 113 % of control (2×)
T/C (dose: 1.5 mg/kg/injection, schedule: Q01DX009 (ip), vehicle: alcohol): 113 % of control and 116 % of control
T/C (dose: 1.5 mg/kg/injection, schedule: Q01DX009 (ip), vehicle: other): 95 % of control and 104 % of control
T/C (dose: 1.87 mg/kg/injection, schedule: Q01DX009 (ip), vehicle: saline): 115 % of control
T/C (dose: 1.9 mg/kg/injection, schedule: Q01DX001 (ip), vehicle: saline): 115 % of control
T/C (dose: 2.0 mg/kg/injection, schedule: Q01DX009 (ip), vehicle: saline + alcohol): 109 % of control and 118 % of control
T/C (dose: 2.0 mg/kg/injection, schedule: Q01DX009 (ip), vehicle: saline with Tween-80): 109 % of control and 115 % of control and 122 % of control
T/C (dose: 2.0 mg/kg/injection, schedule: Q04DX003 (ip), vehicle: saline + alcohol): 118 % of control
T/C (dose: 3.0 mg/kg/injection, schedule: Q01DX009 (ip), vehicle: other): 105 % of control and 114 % of control
T/C (dose: 3.75 mg/kg/injection, schedule: Q01DX001 (ip), vehicle: saline): 115 % of control
T/C (dose: 4.0 mg/kg/injection, schedule: Q01DX009 (ip), vehicle: saline with Tween-80): 152 % of control
T/C (dose: 5.0 mg/kg/injection, schedule: Q01DX001 (ip), vehicle: saline + alcohol): 111 % of control and 122 % of control
T/C (dose: 5.0 mg/kg/injection, schedule: Q01DX009 (ip), vehicle: other): 190 % of control
T/C (dose: 5.0 mg/kg/injection, schedule: Q04DX003 (ip), vehicle: saline + alcohol): 113 % of control and 115 % of control
T/C (dose: 6.0 mg/kg/injection, schedule: Q01DX009 (ip), vehicle: alcohol): 160 % of control and 188 % of control
T/C (dose: 6.0 mg/kg/injection, schedule: Q01DX009 (ip), vehicle: other): 171 % of control and 179 % of control
T/C (dose: 7.5 mg/kg/injection, schedule: Q01DX001 (ip), vehicle: saline): 119 % of control
T/C (dose: 7.5 mg/kg/injection, schedule: Q01DX009 (ip), vehicle: saline): 192 % of control
T/C (dose: 8.0 mg/kg/injection, schedule: Q01DX001 (ip), vehicle: saline + alcohol): 107 % of control
T/C (dose: 8.0 mg/kg/injection, schedule: Q01DX009 (ip), vehicle: saline + alcohol): 207 % of control and 221 % of control
T/C (dose: 8.0 mg/kg/injection, schedule: Q01DX009 (ip), vehicle: saline with Tween-80): 165 % of control and 168 % of control and 183 % of control
T/C (dose: 8.0 mg/kg/injection, schedule: Q04DX003 (ip), vehicle: saline + alcohol): 111 % of control
T/C (dose: 10.0 mg/kg/injection, schedule: Q01DX001 (ip), vehicle: saline): 121 % of control
T/C (dose: 12.0 mg/kg/injection, schedule: Q01DX009 (ip), vehicle: other): 153 % of control
T/C (dose: 15.0 mg/kg/injection, schedule: Q01DX009 (ip), vehicle: saline): 200 % of control
T/C (dose: 16.0 mg/kg/injection, schedule: Q01DX009 (ip), vehicle: saline + alcohol): 53 % of control and 65 % of control
T/C (dose: 16.0 mg/kg/injection, schedule: Q04DX003 (ip), vehicle: saline + alcohol): 186 % of control
T/C (dose: 20.0 mg/kg/injection, schedule: Q01DX001 (ip), vehicle: saline): 154 % of control
T/C (dose: 20.0 mg/kg/injection, schedule: Q04DX003 (ip), vehicle: saline + alcohol): 157 % of control and 210 % of control and 229 % of control
T/C (dose: 30.0 mg/kg/injection, schedule: Q01DX001 (ip), vehicle: saline + alcohol): 154 % of control
T/C (dose: 30.0 mg/kg/injection, schedule: Q01DX001 (ip), vehicle: saline): 189 % of control
T/C (dose: 32.0 mg/kg/injection, schedule: Q01DX009 (ip), vehicle: saline + alcohol): 40 % of control and 44 % of control
T/C (dose: 32.0 mg/kg/injection, schedule: Q04DX003 (ip), vehicle: saline + alcohol): 248 % of control
T/C (dose: 40.0 mg/kg/injection, schedule: Q01DX001 (ip), vehicle: saline): 207 % of control
T/C (dose: 40.0 mg/kg/injection, schedule: Q04DX003 (ip), vehicle: saline + alcohol): 62 % of control and 80 % of control
T/C (dose: 60.0 mg/kg/injection, schedule: Q01DX001 (ip), vehicle: saline): 106 % of control
T/C (dose: 64.0 mg/kg/injection, schedule: Q01DX001 (ip), vehicle: saline + alcohol): 42 % of control
T/C (dose: 64.0 mg/kg/injection, schedule: Q01DX009 (ip), vehicle: saline + alcohol): 28 % of control and 30 % of control
T/C (dose: 64.0 mg/kg/injection, schedule: Q04DX003 (ip), vehicle: saline + alcohol): 43 % of control
T/C (dose: 128.0 mg/kg/injection, schedule: Q04DX003 (ip), vehicle: saline + alcohol): 37 % of control
T/C (dose: 256.0 mg/kg/injection, schedule: Q04DX003 (ip), vehicle: saline + alcohol): 20 % of control

Cc1cc2no[n+]([O-])c2cc1C
T/C (dose: 50.0 mg/kg/injection, schedule: Q01DX009 (ip), vehicle: Klucel (hydroxypropylcellulose) (HPC)): 116 % of control
T/C (dose: 100.0 mg/kg/injection, schedule: Q01DX009 (ip), vehicle: Klucel (hydroxypropylcellulose) (HPC)): 99 % of control
T/C (dose: 200.0 mg/kg/injection, schedule: Q01DX009 (ip), vehicle: Klucel (hydroxypropylcellulose) (HPC)): 117 % of control

COC(=O)NC1C(C)OC(OC2C/C=C(/C)C3C=CC4C(OC5CC(OC6CCC(OC7CC(O)C(OC8CCC(O)C(C)O8)C(C)O7)C(C)O6)C(OC(C)=O)C(C)O5)C(C)CC(C)C4C3(C)/C(O)=C3/C(=O)OC4(CC(C=O)=CC(O)C4/C=C\2C)C3=O)CC1(C)[N+](=O)[O-] (centres undefined)
T/C (dose: 2.5 mg/kg/injection, schedule: Q01DX009 (ip), vehicle: water): 159 % of control
T/C (dose: 5.0 mg/kg/injection, schedule: Q01DX009 (ip), vehicle: water): 165 % of control
T/C (dose: 10.0 mg/kg/injection, schedule: Q01DX009 (ip), vehicle: water): 157 % of control

CC1(C)N=C(N)N=C(N)N1c1cccc(CNC(=O)Nc2cccc(S(=O)(=O)F)c2)c1
T/C [1]: 101 % of control
